# Values of other authors, collected in US20260130395A1, “Water Dispersible Botanical Compositions” (Aquila Black Limited, priority 2021, published 2026).
# Molecular target: T1, 5-HT3 serotonin receptor (Homo sapiens, UniProt P46098)
# T1 sequence (P46098 24-478): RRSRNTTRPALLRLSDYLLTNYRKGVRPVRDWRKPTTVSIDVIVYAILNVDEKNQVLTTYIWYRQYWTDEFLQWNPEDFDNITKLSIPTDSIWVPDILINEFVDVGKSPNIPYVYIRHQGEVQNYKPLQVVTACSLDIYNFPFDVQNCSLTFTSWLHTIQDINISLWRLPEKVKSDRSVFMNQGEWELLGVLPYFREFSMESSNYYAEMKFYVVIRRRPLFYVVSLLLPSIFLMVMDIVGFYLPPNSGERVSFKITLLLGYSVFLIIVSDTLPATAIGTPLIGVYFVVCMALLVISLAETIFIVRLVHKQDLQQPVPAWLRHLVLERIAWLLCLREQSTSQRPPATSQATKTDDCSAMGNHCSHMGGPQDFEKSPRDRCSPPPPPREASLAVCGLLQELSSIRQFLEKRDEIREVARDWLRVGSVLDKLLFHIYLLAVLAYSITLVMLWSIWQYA
# Conditions: Nebrisi et al. 2020, Front. Pharmacol. 11:1274; cited from earlier work
smiles,measurement,value
COc1cc(CNC(=O)CCCC/C=C/C(C)C)ccc1O [capsaicin],mode of action at the 5-HT3 serotonin receptor,negative allosteric modulator
